According to US20230312744A1, “Modulatory Substance of Tumor Immune Microenvironment, and Preventive, Diagnostic and/or Therapeutic Utilization of the Same” (The University Of Tokyo, priority 2020, published 2023):

T1: mouse TCTP (mouse, UniProt P63028 1-172)
T1 construct: also called TCTP in the whole cell lysate of TCTP WT SL4 cells; TCTP released from dead SL4 cells
T1 sequence (looked up): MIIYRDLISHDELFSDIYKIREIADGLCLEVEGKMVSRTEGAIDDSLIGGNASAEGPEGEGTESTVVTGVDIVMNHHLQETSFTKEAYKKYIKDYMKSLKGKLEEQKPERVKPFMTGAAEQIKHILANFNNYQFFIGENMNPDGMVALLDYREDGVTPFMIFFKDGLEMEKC


Assays:
IL-2ss-TCTP tumors = experiment: Proliferation assay of subcutaneously transplanted IL-2ss-TCTP SL4 tumor in C57BL/6 mice; type: in vivo, mouse; details: 50 mg/kg orally, FIG. 11(i)
Procedure: In FIG. 11(a), PECs (2×10^5 cells) or SL4 cells (1×10^5 cells) were stimulated with recombinant TCTP for 2 hours. Thereafter, Cxcl1 mRNA was quantified by qRT-PCR (n=3). In FIG. 11(b), the Cxcl1 mRNA of TCTP WO SL4 cells and TCTP KO SL4 cells was quantified by RT-qPCR. n=3. In FIG. 11(c), SL4 cells (2×10^5 cells) were subcutaneously transplanted into C57BL/6 mice (n=3). On Day 21 after the transplantation, single cell suspensions were prepared from tumors. Thereafter, various immune cells (PMN-MDSCs, M-MDSCs, TAMS, DCs, T cells, B cells, and NK cells) were separated, and the Cxcl2 mRNA of individual cells was then quantified by qRT-PCR. In FIG. 11(d), PECs (2×10^5 cells) were stimulated with recombinant IL-la for 2 hours. Thereafter, Cxcl1 mRNA was quantified by qRT-PCR (n=3). […] HEK293T cells transiently expressing TLR2-YFP and Flag-TCTP were subjected to immunoprecipitation with an anti-GFP antibody, and thereafter, were analyzed with an anti-Flag antibody (upper view), and TLR2 and TCTP in the whole cell lysate were detected (lower view). […] The tumor volume was measured over time. In FIG. 11(i), IL-2ss-TCTP SL4 cells (2×10^5 cells) were subcutaneously transplanted into C57BL/6 mice, and the tumor volume was then measured over time. […]

mouse TCTP = target: T1, mouse TCTP; experiment: immunoblotting of whole cell lysates of TCTP WT and TCTP KO SL4 cells

Row | binding result (mouse TCTP) | Molecule | proliferation of IL-2ss-TCTP tumors (IL-2ss-TCTP tumors)
1 | – | COc1cccc(C=O)c1O [O -vanillin, O-vanillin] | suppressed
2 | binds | 55F3 antibody (antibody, V domains shown, also called 55F3E5; 55F3E5 (55F3) monoclonal antibody) VH: DVQLQESGPGLVKPSQSLSLTCTATGYSIASDYAWNWIRQFPGNKLEWMGYINYSGSTGYNPSLKSRISITRDTSKNQFFLQLNSVTTEDTATYYCARFEAGYWGQGTTLTVSS VL: DIKMTQSPSSMSASLGERVTITCKASQDINRYLSWFQQKPGKSPKTLIYRANRLVDGVPSRFSGSGSGQDYSLTISSLEYGDMGIYYCLQYNEFPLTFGAGTKLELKR | –
